Results reported in US12390437B2, “Itaconic acid derivatives and uses thereof intreating an inflammatory disease or a disease associated with an undesirable immune response” (Sitryx Therapeutics Limited, priority 2019, dated 2025).

Test system: IL-1β cytokine output from THP-1s
Experiment: THP-1 AlphaLISA IL-1β cytokine assay
Assay type: cell-based, human
Conditions: Homo sapiens, THP-1, PMA-differentiated THP-1 cells, LPS 24 hr then Nigericin 1 hour; read-out: IL-1β (IC50)
How it was run: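 AlphaLISA read-out of cytokine released into supernatants of differentiated THP-1 cells. Cells were PMA-treated for 72 h, exposed to compound for 30 min, stimulated with LPS for 24 h, then given nigericin for 1 h before harvest. IC50 values come from normalised concentration-response curves.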

Q: C=C(CC(=O)OCCCCCCCC)C(=O)OCC(=O)N1CCC[C@H]1C(=O)O [Example 99, (2-((2-methylene-4-(octyloxy)-4-oxobutanoyl)oxy)acetyl)-L-proline] was tested. Which IC50 did it give?
A: 1.9 µM

Q: C=C(CC(=O)OCCCCCCCC)C(=O)OC(C)C(=O)N(C)CC(=O)O (stereo not drawn) [Example 100, N-methyl-N-(2-((2-methylene-4-(octyloxy)-4-oxobutanoyl)oxy)propanoyl)glycine] was tested. Which IC50 did it give?
A: 11 µM

Q: C=C(CC(=O)OCc1ccc(F)cc1)C(=O)OCC(=O)O [Example 93, 2-((4-((4-fluorobenzyl)oxy)-2-methylene-4-oxobutanoyl)oxy)acetic acid] was tested. Which IC50 did it give?
A: 73.8 µM

Q: With C=C(CC(=O)OC1CCCCCCC1)C(=O)OC1CCN(S(C)(=O)=O)CC1 [Example 69, 4-cyclooctyl 1-(1-(methylsulfonyl)piperidin-4-yl) 2-methylenesuccinate] as the molecule, how does the IC50 read?
A: 1.7 µM

Q: C=C(CC(=O)OCCCCCCCC)C(=O)OC1CN(C(C)=O)C1 [Example 50, 1-(1-acetylazetidin-3-yl) 4-octyl 2-methylenesuccinate] was tested. Which IC50 did it give?
A: 2.7 µM

Q: How did the IC50 turn out when C=C(CC(=O)OCc1ccc(F)cc1)C(=O)OCCC(=O)O [Example 81, 3-((4-((4-fluorobenzyl)oxy)-2-methylene-4-oxobutanoyl)oxy)propanoic acid] was run?
A: 100 µM

Test system: IL-6 cytokine output from THP-1s
Experiment: THP-1 AlphaLISA IL-6 cytokine assay
Assay type: cell-based, human
Conditions: Homo sapiens; PMA-differentiated THP-1 cells, LPS 24 hr then Nigericin 1 hour
Method: Measuring Inhibitory Effects on IL-1β and IL-6 Cytokine Output from THP-1s
The cytokine inhibition profiles of compounds of formula (IW-1) were determined in a differentiated THP-1 cell assay. All assays were performed in RPMI-1640 growth medium (Gibco), supplemented with 10% fetal bovine serum (FBS; Gibco), 1% penicillin-streptomycin and 1% sodium pyruvate unless specified otherwise. The IL-1β and IL-6 cytokine inhibition assays were each run in a background of differentiated THP-1 cells as described below. All reagents described were from Sigma-Aldrich unless specified otherwise. Compounds were prepared as 10 mM DMSO stocks.
THP-1 cells were expanded as a suspension up to 80% confluence in appropriate growth medium. Cells were harvested, suspended, and treated with an appropriate concentration of phorbol 12-myristate 13-acetate (PMA) over a 72 hr period (37° C./5% CO2).
Following 72 hrs of THP-1 cell incubation, cellular medium was removed and replaced with fresh growth media containing 1% of FBS. Working concentrations of compounds were prepared separately in 10% FBS treated growth medium and pre-incubated with the cells for 30 minutes (37° C./5% CO2). Following the 30 minute compound pre-incubation, THP-1s were treated with an appropriate concentration of LPS and the THP-1s were subsequently incubated for a 24 hr period (37° C./5% CO2). An appropriate final concentration of Nigericin was then dispensed into the THP-1 plates and incubated for 1 hour (37° C./5% CO2) before THP-1 supernatants were harvested and collected in separate polypropylene 96-well holding plates.
Reagents from each of the IL-1β and IL-6 commercial kits (Perkin Elmer) were prepared and run according to the manufacturer's instructions. Subsequently, fluorescence signal detection in a microplate reader was measured (EnVision® Multilabel Reader, Perkin Elmer).
Percentage inhibition was calculated per cytokine by normalising the sample data to the high and low controls used within each plate (+/−LPS respectively). Percentage inhibition was then plotted against compound concentration and the 50% inhibitory concentration (IC50) was determined from the resultant concentration-response curve.

Q: C=C(CC(=O)OCCCCCCCC)C(=O)OCC(=O)N1CCC[C@H]1C(=O)O [Example 99, (2-((2-methylene-4-(octyloxy)-4-oxobutanoyl)oxy)acetyl)-L-proline] was tested. Which IC50 did it give?
A: 2.5 µM

Q: For C=C(CC(=O)OCCCCCCCC)C(=O)OC(C)C(=O)N(C)CC(=O)O (stereo not drawn) [Example 100, N-methyl-N-(2-((2-methylene-4-(octyloxy)-4-oxobutanoyl)oxy)propanoyl)glycine], which IC50 is on record?
A: 5.1 µM

Q: For C=C(CC(=O)OCc1ccc(F)cc1)C(=O)OCC(=O)O [Example 93, 2-((4-((4-fluorobenzyl)oxy)-2-methylene-4-oxobutanoyl)oxy)acetic acid], which IC50 is on record?
A: 28.1 µM

Q: With C=C(CC(=O)OC1CCCCCCC1)C(=O)OC1CCN(S(C)(=O)=O)CC1 [Example 69, 4-cyclooctyl 1-(1-(methylsulfonyl)piperidin-4-yl) 2-methylenesuccinate] as the molecule, how does the IC50 read?
A: 2.2 µM

Q: For C=C(CC(=O)OCCCCCCCC)C(=O)OC1CN(C(C)=O)C1 [Example 50, 1-(1-acetylazetidin-3-yl) 4-octyl 2-methylenesuccinate], which IC50 is on record?
A: 1.7 µM

Q: For C=C(CC(=O)OCc1ccc(F)cc1)C(=O)OCCC(=O)O [Example 81, 3-((4-((4-fluorobenzyl)oxy)-2-methylene-4-oxobutanoyl)oxy)propanoic acid], which IC50 is on record?
A: 52.1 µM

Test system: NRF2
Experiment: NRF2 +/-GSH activation assay (DiscoverX PathHunter NRF2 translocation kit, U2OS cells)
Assay type: cell-based
Conditions: Homo sapiens, U2OS; normalised to dimethyl fumarate 'High' control; GSH condition not stated in Table 5; read-out: NRF2 activation Emax
Method: Measuring Compound Activation Effects on the Anti-Inflammatory Transcription Factor NRF2 in DiscoverX PathHunter NRF2 Translocation Kit
Potency and efficacy of compounds of formula (IW-1) against the target of interest to activate NRF2 (nuclear factor erythroid 2-related factor 2) were determined using the PathHunter NRF2 translocation kit (DiscoverX). The NRF2 translocation assay was run using an engineered recombinant cell line, utilising enzyme fragment complementation to determine activation of the Keap1-NRF2 protein complex and subsequent translocation of NRF2 into the nucleus. Enzyme activity was quantified using a chemiluminescent substrate consumed following the formation of a functional enzyme upon PK-tagged NRF2 translocation into the nucleus.
The assay was run under either +/−GSH (glutathione) conditions to determine the attenuating activities of GSH against target compounds.
Additionally, a defined concentration of dimethyl fumarate was used as the ‘High’ control to normalise test compound activation responses to.
U2OS PathHunter eXpress cells were thawed from frozen prior to plating. Following plating, U2OS cells were incubated for 24 hrs (37° C./5% CO2) in commercial kit provided cell medium.
Following 24 hrs of U2OS incubation, cells were directly treated with an appropriate final concentration of compound, for −GSH conditions, or for +GSH conditions, an intermediate plate containing 6× working concentrations of compound stocks was prepared in a 6 mM working concentration of GSH solution (solubilised in sterile PBS). Following a 30 minute compound-GSH pre-incubation (37° C./5% CO2) for +GSH treatment, plated U2OS cells were incubated with an appropriate final concentration of compound and GSH.
Following compound (+/−GSH) treatment, the U2OS plates were incubated for a further 6 hours (37° C./5% CO2) before detection reagent from the PathHunter NRF2 commercial kit was prepared and added to test plates according to the manufacturer's instructions. Subsequently, the luminescence signal detection in a microplate reader was measured (PHERAstar®, BMG Labtech).
Percentage activation was calculated by normalising the sample data to the high and low controls used within each plate (+/−DMF). Percentage activation/response was then plotted against compound concentration and the 50% activation concentration (EC50) was determined from the plotted concentration-response curve.

Q: With C=C(CC(=O)OCCCCCCCC)C(=O)OCC(=O)N1CCC[C@H]1C(=O)O [Example 99, (2-((2-methylene-4-(octyloxy)-4-oxobutanoyl)oxy)acetyl)-L-proline] as the molecule, how does the Emax read?
A: 227%

Q: With C=C(CC(=O)OCCCCCCCC)C(=O)OC(C)C(=O)N(C)CC(=O)O (stereo not drawn) [Example 100, N-methyl-N-(2-((2-methylene-4-(octyloxy)-4-oxobutanoyl)oxy)propanoyl)glycine] as the molecule, how does the Emax read?
A: 195%

Q: C=C(CC(=O)OCc1ccc(F)cc1)C(=O)OCC(=O)O [Example 93, 2-((4-((4-fluorobenzyl)oxy)-2-methylene-4-oxobutanoyl)oxy)acetic acid] was tested. Which Emax did it give?
A: 118%

Q: Which Emax does the source give for C=C(CC(=O)OC1CCCCCCC1)C(=O)OC1CCN(S(C)(=O)=O)CC1 [Example 69, 4-cyclooctyl 1-(1-(methylsulfonyl)piperidin-4-yl) 2-methylenesuccinate] here?
A: 111%

Q: C=C(CC(=O)OCCCCCCCC)C(=O)OC1CN(C(C)=O)C1 [Example 50, 1-(1-acetylazetidin-3-yl) 4-octyl 2-methylenesuccinate] was tested. Which Emax did it give?
A: 225%

Q: How did the Emax turn out when C=C(CC(=O)OCc1ccc(F)cc1)C(=O)OCCC(=O)O [Example 81, 3-((4-((4-fluorobenzyl)oxy)-2-methylene-4-oxobutanoyl)oxy)propanoic acid] was run?
A: 110%

Same assay, conditions: Homo sapiens; U2OS PathHunter cells, 6 hours; GSH condition not stated in Table 5; read-out: NRF2 activation EC50

Q: How did the EC50 turn out when C=C(CC(=O)OCCCCCCCC)C(=O)OCC(=O)N1CCC[C@H]1C(=O)O [Example 99, (2-((2-methylene-4-(octyloxy)-4-oxobutanoyl)oxy)acetyl)-L-proline] was run?
A: 37.6 µM

Q: C=C(CC(=O)OCCCCCCCC)C(=O)OC(C)C(=O)N(C)CC(=O)O (stereo not drawn) [Example 100, N-methyl-N-(2-((2-methylene-4-(octyloxy)-4-oxobutanoyl)oxy)propanoyl)glycine] was tested. Which EC50 did it give?
A: 48.7 µM

Q: How did the EC50 turn out when C=C(CC(=O)OCc1ccc(F)cc1)C(=O)OCC(=O)O [Example 93, 2-((4-((4-fluorobenzyl)oxy)-2-methylene-4-oxobutanoyl)oxy)acetic acid] was run?
A: 36 µM

Q: How did the EC50 turn out when C=C(CC(=O)OC1CCCCCCC1)C(=O)OC1CCN(S(C)(=O)=O)CC1 [Example 69, 4-cyclooctyl 1-(1-(methylsulfonyl)piperidin-4-yl) 2-methylenesuccinate] was run?
A: 14.7 µM

Q: How did the EC50 turn out when C=C(CC(=O)OCCCCCCCC)C(=O)OC1CN(C(C)=O)C1 [Example 50, 1-(1-acetylazetidin-3-yl) 4-octyl 2-methylenesuccinate] was run?
A: 3.2 µM

Q: How did the EC50 turn out when C=C(CC(=O)OCc1ccc(F)cc1)C(=O)OCCC(=O)O [Example 81, 3-((4-((4-fluorobenzyl)oxy)-2-methylene-4-oxobutanoyl)oxy)propanoic acid] was run?
A: 24.9 µM
